Source: the kinase profiling compilation of Christmann-Franck et al. (2016)

Legend:
Assay in all cases: radiometric filter-binding kinase assay, Kinase HotSpot
Details in all cases: compound 0.5 µM; ATP 10 µM
ABL1 (human) = ABL1 (human) (UniProt P00519)
ACVR1B (human) = ACVR1B (human) (UniProt P36896)
AURKB (human) = AURKB (human) (UniProt Q96GD4)
CAMK1D (human) = CAMK1D (human) (UniProt Q8IU85)
CDK4 CCND3 (human) = CDK4 CCND3 (human) (UniProt P30281+P11802)
CLK1 (human) = CLK1 (human) (UniProt P49759)
CSNK2A2 (human) = CSNK2A2 (human) (UniProt P19784)
EGFR (human) = EGFR (human) (UniProt P00533)
EPHA5 (human) = EPHA5 (human) (UniProt P54756)
EPHA7 (human) = EPHA7 (human) (UniProt Q15375)
EPHB2 (human) = EPHB2 (human) (UniProt P29323)
GSK3B (human) = GSK3B (human) (UniProt P49841)
HIPK4 (human) = HIPK4 (human) (UniProt Q8NE63)
ITK (human) = ITK (human) (UniProt Q08881)
LTK (human) = LTK (human) (UniProt P29376)
MAP2K2 (human) = MAP2K2 (human) (UniProt P36507)
MAP3K10 (human) = MAP3K10 (human) (UniProt Q02779)
MAP3K11 (human) = MAP3K11 (human) (UniProt Q16584)
MAP3K2 (human) = MAP3K2 (human) (UniProt Q9Y2U5)
MAP3K8 (human) = MAP3K8 (human) (UniProt P41279)
MAP3K9 (human) = MAP3K9 (human) (UniProt P80192)
MAP4K4 (human) = MAP4K4 (human) (UniProt O95819)
MAPK10 (human) = MAPK10 (human) (UniProt P53779)
MAPKAPK2 (human) = MAPKAPK2 (human) (UniProt P49137)
MARK3 (human) = MARK3 (human) (UniProt P27448)
PASK (human) = PASK (human) (UniProt Q96RG2)
PHKG2 (human) = PHKG2 (human) (UniProt P15735)
PKN2 (human) = PKN2 (human) (UniProt Q16513)
PNCK (human) = PNCK (human) (UniProt Q6P2M8)
PRKCG (human) = PRKCG (human) (UniProt P05129)
PRKCI (human) = PRKCI (human) (UniProt P41743)
PRKCZ (human) = PRKCZ (human) (UniProt Q05513)
ROS1 (human) = ROS1 (human) (UniProt P08922)
RPS6KA4 KD2 (human) = RPS6KA4 KD2 (human) (UniProt O75676)
RPS6KB2 (human) = RPS6KB2 (human) (UniProt Q9UBS0)
STK25 (human) = STK25 (human) (UniProt O00506)
STK3 (human) = STK3 (human) (UniProt Q13188)
TAOK2 (human) = TAOK2 (human) (UniProt Q9UL54)
TEC (human) = TEC (human) (UniProt P42680)
TSSK1B (human) = TSSK1B (human) (UniProt Q9BXA7)
ULK2 (human) = ULK2 (human) (UniProt Q8IYT8)
CDK5 CDK5R1 p35 (human) = CDK5 CDK5R1 p35 (human) (UniProt Q00535+Q15078)

TAOK2 (human), sequence (Q9UL54 whole entry, looked up): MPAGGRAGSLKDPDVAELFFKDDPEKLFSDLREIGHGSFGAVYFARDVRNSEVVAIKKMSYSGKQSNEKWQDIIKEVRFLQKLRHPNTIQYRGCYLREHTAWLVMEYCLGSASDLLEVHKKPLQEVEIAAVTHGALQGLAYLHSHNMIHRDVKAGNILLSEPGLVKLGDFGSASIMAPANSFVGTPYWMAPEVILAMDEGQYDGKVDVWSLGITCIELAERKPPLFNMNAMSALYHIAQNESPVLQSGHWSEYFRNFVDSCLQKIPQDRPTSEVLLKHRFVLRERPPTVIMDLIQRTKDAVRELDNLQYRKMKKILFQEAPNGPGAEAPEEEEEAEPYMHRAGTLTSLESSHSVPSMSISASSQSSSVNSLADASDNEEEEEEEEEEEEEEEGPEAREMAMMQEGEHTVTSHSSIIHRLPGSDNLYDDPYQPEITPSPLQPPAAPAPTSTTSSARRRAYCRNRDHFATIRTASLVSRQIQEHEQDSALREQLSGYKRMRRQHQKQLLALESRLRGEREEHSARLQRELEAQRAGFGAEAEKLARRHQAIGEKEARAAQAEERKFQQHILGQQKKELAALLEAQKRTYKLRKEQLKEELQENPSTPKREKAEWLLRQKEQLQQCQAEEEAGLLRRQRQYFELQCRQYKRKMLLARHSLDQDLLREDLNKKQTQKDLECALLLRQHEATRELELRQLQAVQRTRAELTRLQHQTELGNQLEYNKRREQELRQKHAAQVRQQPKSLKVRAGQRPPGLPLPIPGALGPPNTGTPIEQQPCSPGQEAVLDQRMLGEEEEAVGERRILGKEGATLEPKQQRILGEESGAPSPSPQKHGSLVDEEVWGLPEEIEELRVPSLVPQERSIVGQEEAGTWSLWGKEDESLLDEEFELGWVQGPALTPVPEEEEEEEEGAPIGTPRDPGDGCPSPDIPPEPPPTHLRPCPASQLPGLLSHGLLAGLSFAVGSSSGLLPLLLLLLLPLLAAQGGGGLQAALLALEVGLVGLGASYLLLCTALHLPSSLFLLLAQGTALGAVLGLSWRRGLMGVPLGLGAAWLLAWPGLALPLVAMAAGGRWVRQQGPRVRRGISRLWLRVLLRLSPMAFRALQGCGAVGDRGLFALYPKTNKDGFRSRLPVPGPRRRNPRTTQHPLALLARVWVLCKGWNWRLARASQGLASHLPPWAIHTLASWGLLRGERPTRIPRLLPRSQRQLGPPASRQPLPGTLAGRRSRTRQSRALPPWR
TEC (human), sequence (P42680 whole entry, looked up): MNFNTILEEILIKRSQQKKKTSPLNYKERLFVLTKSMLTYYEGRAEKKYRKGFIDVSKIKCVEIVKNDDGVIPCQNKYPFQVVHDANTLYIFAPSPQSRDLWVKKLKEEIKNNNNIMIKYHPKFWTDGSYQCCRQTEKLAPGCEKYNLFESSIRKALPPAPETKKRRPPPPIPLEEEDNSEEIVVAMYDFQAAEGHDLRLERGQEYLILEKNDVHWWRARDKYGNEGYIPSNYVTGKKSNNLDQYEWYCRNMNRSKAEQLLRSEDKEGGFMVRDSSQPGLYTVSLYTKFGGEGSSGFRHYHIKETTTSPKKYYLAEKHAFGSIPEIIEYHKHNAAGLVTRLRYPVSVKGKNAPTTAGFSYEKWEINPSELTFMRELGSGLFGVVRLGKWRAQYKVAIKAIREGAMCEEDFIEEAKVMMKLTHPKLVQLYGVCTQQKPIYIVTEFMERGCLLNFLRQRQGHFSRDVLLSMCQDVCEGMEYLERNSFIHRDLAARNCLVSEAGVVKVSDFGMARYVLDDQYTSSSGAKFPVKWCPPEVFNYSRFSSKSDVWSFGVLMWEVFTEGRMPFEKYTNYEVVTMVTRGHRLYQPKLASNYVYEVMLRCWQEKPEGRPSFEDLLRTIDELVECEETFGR
EPHA5 (human), sequence (P54756 whole entry, looked up): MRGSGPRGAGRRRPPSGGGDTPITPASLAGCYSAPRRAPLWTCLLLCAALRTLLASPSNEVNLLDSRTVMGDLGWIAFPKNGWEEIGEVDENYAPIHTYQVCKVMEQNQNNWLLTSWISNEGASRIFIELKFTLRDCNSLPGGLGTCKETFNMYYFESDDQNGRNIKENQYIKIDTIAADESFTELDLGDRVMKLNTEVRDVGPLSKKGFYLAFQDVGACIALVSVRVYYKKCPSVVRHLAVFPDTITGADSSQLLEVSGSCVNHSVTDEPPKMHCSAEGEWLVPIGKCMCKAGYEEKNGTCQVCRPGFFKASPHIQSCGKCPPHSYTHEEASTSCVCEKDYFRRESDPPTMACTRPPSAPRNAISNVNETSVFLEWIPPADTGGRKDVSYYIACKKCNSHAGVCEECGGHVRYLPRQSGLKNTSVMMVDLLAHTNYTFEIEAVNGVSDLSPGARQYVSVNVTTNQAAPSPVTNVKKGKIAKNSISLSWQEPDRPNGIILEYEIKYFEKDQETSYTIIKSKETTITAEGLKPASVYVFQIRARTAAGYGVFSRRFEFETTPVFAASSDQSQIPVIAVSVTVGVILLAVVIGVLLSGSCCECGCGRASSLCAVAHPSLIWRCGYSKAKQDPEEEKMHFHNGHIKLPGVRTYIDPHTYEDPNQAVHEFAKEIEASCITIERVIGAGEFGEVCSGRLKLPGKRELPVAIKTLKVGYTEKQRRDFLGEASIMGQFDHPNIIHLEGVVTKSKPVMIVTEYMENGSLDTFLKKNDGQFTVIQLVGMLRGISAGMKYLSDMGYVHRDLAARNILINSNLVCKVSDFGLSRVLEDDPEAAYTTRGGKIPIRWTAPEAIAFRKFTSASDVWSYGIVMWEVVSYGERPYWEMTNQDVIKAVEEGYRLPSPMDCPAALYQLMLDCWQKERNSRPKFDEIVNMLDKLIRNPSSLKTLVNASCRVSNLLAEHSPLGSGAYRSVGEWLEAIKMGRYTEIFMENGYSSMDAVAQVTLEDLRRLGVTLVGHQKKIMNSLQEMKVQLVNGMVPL
PKN2 (human), sequence (Q16513 whole entry, looked up): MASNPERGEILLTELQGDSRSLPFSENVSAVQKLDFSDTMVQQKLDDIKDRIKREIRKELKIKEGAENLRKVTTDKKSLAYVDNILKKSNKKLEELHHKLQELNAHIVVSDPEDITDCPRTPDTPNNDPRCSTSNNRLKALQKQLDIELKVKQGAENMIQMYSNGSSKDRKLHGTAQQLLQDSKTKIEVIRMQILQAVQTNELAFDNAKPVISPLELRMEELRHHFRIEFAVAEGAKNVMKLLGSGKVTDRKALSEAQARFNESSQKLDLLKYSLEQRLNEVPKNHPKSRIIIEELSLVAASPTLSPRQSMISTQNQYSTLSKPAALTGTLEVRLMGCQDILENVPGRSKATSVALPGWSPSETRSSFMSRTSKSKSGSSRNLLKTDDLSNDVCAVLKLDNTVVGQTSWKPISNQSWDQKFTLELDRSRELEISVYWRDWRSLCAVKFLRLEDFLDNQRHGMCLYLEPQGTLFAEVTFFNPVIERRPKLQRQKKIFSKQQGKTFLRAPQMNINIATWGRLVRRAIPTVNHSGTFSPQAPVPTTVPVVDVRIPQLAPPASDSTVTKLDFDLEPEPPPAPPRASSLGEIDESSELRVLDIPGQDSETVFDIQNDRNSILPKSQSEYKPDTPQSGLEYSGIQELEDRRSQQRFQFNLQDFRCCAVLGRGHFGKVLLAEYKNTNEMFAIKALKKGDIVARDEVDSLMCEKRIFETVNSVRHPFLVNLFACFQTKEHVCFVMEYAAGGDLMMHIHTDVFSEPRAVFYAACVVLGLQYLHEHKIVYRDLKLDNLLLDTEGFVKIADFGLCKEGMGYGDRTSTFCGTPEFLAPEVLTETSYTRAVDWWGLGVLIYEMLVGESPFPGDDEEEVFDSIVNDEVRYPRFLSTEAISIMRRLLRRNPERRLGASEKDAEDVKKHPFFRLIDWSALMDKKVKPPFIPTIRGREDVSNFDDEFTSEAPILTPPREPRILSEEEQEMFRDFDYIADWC
ULK2 (human), sequence (Q8IYT8 whole entry, looked up): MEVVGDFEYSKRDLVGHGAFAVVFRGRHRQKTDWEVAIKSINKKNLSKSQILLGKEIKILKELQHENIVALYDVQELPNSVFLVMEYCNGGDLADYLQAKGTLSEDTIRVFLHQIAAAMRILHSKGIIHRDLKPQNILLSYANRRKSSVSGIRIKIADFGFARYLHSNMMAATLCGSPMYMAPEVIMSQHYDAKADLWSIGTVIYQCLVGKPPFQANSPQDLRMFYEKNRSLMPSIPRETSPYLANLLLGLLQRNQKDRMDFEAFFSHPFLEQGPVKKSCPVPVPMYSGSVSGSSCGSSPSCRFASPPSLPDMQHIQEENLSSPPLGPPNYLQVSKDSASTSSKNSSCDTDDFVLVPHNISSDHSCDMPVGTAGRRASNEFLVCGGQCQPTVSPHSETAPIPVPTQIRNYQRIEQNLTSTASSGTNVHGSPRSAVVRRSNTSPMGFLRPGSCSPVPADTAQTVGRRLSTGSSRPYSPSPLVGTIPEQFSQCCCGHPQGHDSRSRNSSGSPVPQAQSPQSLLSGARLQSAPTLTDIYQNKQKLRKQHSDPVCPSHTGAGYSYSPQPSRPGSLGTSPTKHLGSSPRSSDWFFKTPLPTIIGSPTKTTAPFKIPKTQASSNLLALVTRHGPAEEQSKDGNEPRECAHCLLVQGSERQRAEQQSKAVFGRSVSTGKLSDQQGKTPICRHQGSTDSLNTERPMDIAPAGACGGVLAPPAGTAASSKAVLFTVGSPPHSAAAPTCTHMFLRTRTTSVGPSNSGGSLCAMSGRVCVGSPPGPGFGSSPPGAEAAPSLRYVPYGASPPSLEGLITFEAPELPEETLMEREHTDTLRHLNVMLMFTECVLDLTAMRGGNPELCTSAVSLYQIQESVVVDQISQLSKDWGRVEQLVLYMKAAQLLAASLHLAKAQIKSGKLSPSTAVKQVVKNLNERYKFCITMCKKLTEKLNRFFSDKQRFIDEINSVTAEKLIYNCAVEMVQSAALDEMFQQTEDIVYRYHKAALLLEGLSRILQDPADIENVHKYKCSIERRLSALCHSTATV

For `COc1ccc(COc2ccc(Cc3cnc(N)nc3N)cc2OC)cc1`, the residual activity (ABL1 (human)) was 102%, the residual activity (ACVR1B (human)) was 97.8% and the residual activity (AURKB (human)) was 104%. The residual activity (CAMK1D (human)) was 93%, the residual activity (CDK4 CCND3 (human)) was 107% and the residual activity (CLK1 (human)) was 103%. The residual activity (CSNK2A2 (human)) was 97.4%, the residual activity (EGFR (human)) was 96.9% and the residual activity (EPHA5 (human)) was 111%. The residual activity (EPHA7 (human)) was 101%, the residual activity (EPHB2 (human)) was 87.4% and the residual activity (GSK3B (human)) was 97.8%. For the same compound, the residual activity (HIPK4 (human)) was 97.7%, the residual activity (ITK (human)) was 98.1% and the residual activity (LTK (human)) was 100%. It also gave a residual activity (MAP2K2 (human)) of 101%, a residual activity (MAP3K10 (human)) of 96.4% and a residual activity (MAP3K11 (human)) of 101%. For the same compound, the residual activity (MAP3K2 (human)) was 108%, the residual activity (MAP3K8 (human)) was 98.4% and the residual activity (MAP3K9 (human)) was 105%. For the same compound, the residual activity (MAP4K4 (human)) was 99%, the residual activity (MAPK10 (human)) was 84.4% and the residual activity (MAPKAPK2 (human)) was 103%. The residual activity (MARK3 (human)) was 103%, the residual activity (PASK (human)) was 103% and the residual activity (PHKG2 (human)) was 106%. For the same compound, the residual activity (PKN2 (human)) was 90.9%, the residual activity (PNCK (human)) was 98.4% and the residual activity (PRKCG (human)) was 102%. It also gave a residual activity (PRKCI (human)) of 91.6%, a residual activity (PRKCZ (human)) of 93.4% and a residual activity (ROS1 (human)) of 99.9%. For the same compound, the residual activity (RPS6KA4 KD2 (human)) was 107%, the residual activity (RPS6KB2 (human)) was 100% and the residual activity (STK25 (human)) was 97%. For the same compound, the residual activity (STK3 (human)) was 98.4%, the residual activity (TAOK2 (human)) was 94.7% and the residual activity (TEC (human)) was 114%. The residual activity (TSSK1B (human)) was 95.2% and the residual activity (ULK2 (human)) was 105%.

`CC(C)N(CCC(=O)c1ccc2ccccc2c1)Cc1ccccc1` gave a residual activity (ABL1 (human)) of 101%, a residual activity (ACVR1B (human)) of 99.5% and a residual activity (AURKB (human)) of 101%. It also gave a residual activity (CDK4 CCND3 (human)) of 92.4%, a residual activity (CDK5 CDK5R1 p35 (human)) of 103% and a residual activity (CLK1 (human)) of 109%. For the same compound, the residual activity (CSNK2A2 (human)) was 95.4%, the residual activity (EGFR (human)) was 99.4% and the residual activity (EPHA5 (human)) was 118%. The residual activity (EPHA7 (human)) was 106%, the residual activity (EPHB2 (human)) was 102% and the residual activity (GSK3B (human)) was 94.9%. For the same compound, the residual activity (HIPK4 (human)) was 107%, the residual activity (ITK (human)) was 89.9% and the residual activity (LTK (human)) was 103%. It also gave a residual activity (MAP2K2 (human)) of 92.5%, a residual activity (MAP3K10 (human)) of 92.6% and a residual activity (MAP3K11 (human)) of 97%. The residual activity (MAP3K2 (human)) was 107%, the residual activity (MAP3K8 (human)) was 94.6% and the residual activity (MAP3K9 (human)) was 104%. The residual activity (MAP4K4 (human)) was 96.7%, the residual activity (MAPK10 (human)) was 91.1% and the residual activity (MAPKAPK2 (human)) was 99%. The residual activity (MARK3 (human)) was 101%, the residual activity (PASK (human)) was 97.3% and the residual activity (PHKG2 (human)) was 99.9%. The residual activity (PKN2 (human)) was 98.7%, the residual activity (PNCK (human)) was 102% and the residual activity (PRKCG (human)) was 92.7%. It also gave a residual activity (PRKCI (human)) of 97.1%, a residual activity (PRKCZ (human)) of 100% and a residual activity (ROS1 (human)) of 113%. It also gave a residual activity (RPS6KA4 KD2 (human)) of 109%, a residual activity (RPS6KB2 (human)) of 94.3% and a residual activity (STK25 (human)) of 94%. It also gave a residual activity (STK3 (human)) of 102%, a residual activity (TAOK2 (human)) of 96.1% and a residual activity (TEC (human)) of 115%. The residual activity (TSSK1B (human)) was 100% and the residual activity (ULK2 (human)) was 113%.

For `N#C/C(=C(/N)Sc1ccc(N)cc1)c1ccccc1C(F)(F)F`, the residual activity (ABL1 (human)) was 106%, the residual activity (ACVR1B (human)) was 101% and the residual activity (AURKB (human)) was 99.8%. For the same compound, the residual activity (CAMK1D (human)) was 129%, the residual activity (CDK4 CCND3 (human)) was 108% and the residual activity (CDK5 CDK5R1 p35 (human)) was 103%. It also gave a residual activity (CSNK2A2 (human)) of 86%, a residual activity (EGFR (human)) of 97.3% and a residual activity (EPHA5 (human)) of 116%. The residual activity (EPHA7 (human)) was 105%, the residual activity (EPHB2 (human)) was 101% and the residual activity (GSK3B (human)) was 102%. For the same compound, the residual activity (HIPK4 (human)) was 100%, the residual activity (ITK (human)) was 97.4% and the residual activity (LTK (human)) was 100%. For the same compound, the residual activity (MAP2K2 (human)) was 94.5%, the residual activity (MAP3K10 (human)) was 88.1% and the residual activity (MAP3K11 (human)) was 99.9%. For the same compound, the residual activity (MAP3K2 (human)) was 115%, the residual activity (MAP3K8 (human)) was 96.5% and the residual activity (MAP3K9 (human)) was 85.9%. For the same compound, the residual activity (MAP4K4 (human)) was 93.4%, the residual activity (MAPK10 (human)) was 94.7% and the residual activity (MAPKAPK2 (human)) was 103%. For the same compound, the residual activity (MARK3 (human)) was 107%, the residual activity (PASK (human)) was 101% and the residual activity (PHKG2 (human)) was 96.1%. It also gave a residual activity (PKN2 (human)) of 99.9%, a residual activity (PNCK (human)) of 98.9% and a residual activity (PRKCG (human)) of 99.5%. For the same compound, the residual activity (PRKCI (human)) was 102%, the residual activity (PRKCZ (human)) was 106% and the residual activity (ROS1 (human)) was 94.4%. It also gave a residual activity (RPS6KA4 KD2 (human)) of 112%, a residual activity (RPS6KB2 (human)) of 105% and a residual activity (STK25 (human)) of 114%. For the same compound, the residual activity (STK3 (human)) was 125%, the residual activity (TAOK2 (human)) was 101% and the residual activity (TEC (human)) was 109%. For the same compound, the residual activity (TSSK1B (human)) was 103% and the residual activity (ULK2 (human)) was 115%.
